Earlier results in patent US20050118256A1, “Extended release alpha-2 agonist pharmaceutical dosage forms” (priority 2003, published 2005).
Where a name gives a salt, the structure may show the parent alone.

Test system: skeletal muscle fibers, neuromuscular junction, spinal reflexes
Conditions: animal models

Clc1ccc2nsnc2c1NC1=NCCN1 [Tizanidine, 5-chloro-4-(2-imidazolin-2-ylamino)-2,1,3-benzothiodiazole hydrochloride]
effect on monosynaptic spinal reflexes: no major effect | effect on skeletal muscle fibers or the neuromuscular junction: no direct effect
